Data on five compounds can be found in patent publication US20110021532A1, “NOVEL SUBSTITUTED HETEROAROMATIC COMPOUNDS AS INHIBITORS OF STEAROYL-COENZYME A DELTA-9 DESATURASE” (Merck Frosst Canada Ltd., priority 2008, published 2011).

Each structure is given as a SMILES string.

By IC50 is commonly meant the concentration at which inhibition is half-maximal. A lower IC50 goes with greater potency in that assay.

The target of the experiment is T1, human SCD1 (hSCD-1) (Homo sapiens, UniProt O00767).
T1 construct: made in house; host or cells: baculovirus/Sf9
T1 sequence (O00767 1-359): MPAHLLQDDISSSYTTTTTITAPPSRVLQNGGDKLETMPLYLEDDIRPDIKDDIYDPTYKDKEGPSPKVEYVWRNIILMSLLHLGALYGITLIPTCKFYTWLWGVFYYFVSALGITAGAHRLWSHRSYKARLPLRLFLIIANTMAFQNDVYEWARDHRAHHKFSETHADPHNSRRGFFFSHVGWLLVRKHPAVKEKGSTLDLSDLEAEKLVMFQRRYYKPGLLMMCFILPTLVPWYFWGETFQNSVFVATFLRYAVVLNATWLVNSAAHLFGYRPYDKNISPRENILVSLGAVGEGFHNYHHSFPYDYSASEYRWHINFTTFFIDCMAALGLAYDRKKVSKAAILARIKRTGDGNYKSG
The experiment in a line: SCD enzyme activity assay, reconstituted human SCD1 (hSCD-1). Type of experiment: biochemical. The conditions noted are these: human SCD1, conversion of [3H]-stearoyl-CoA. The protocol:
The potency of compounds of formula I against the stearoyl-CoA desaturase was determined by measuring the conversion of radiolabeled stearoyl-CoA to oleoyl-CoA using rat liver microsome or human SCD1 (hSCD-1) following previously published procedures with some modifications (Joshi, et al., J. Lipid Res., 18: 32-36 (1977); Talmo, et al., Anal. Biochem, 29: 300-304 (1969)). Liver microsome was prepared from male Wistar or Sprague Dawley rats on a high carbohydrate diet for 3 days (LabDiet #5803, Purina). The livers were homogenized (1:10 w/v) in a buffer containing 250 mM sucrose, 1 mM EDTA, 5 mM DTT and 50 mM Tris-HCl (pH 7.5). After a 100,000×g centrifugation for 60 min, the liver microsome pellet was suspended in a buffer containing 100 mM sodium phosphate, 20% glycerol, 2 mM DTT, and stored at −78° C. Human SCD1 desaturase system was reconstituted using human SCD1 from a baculovirus/Sf9 expression system, cytochrome B5 and cytochrome B5 reductase. Typically, test compound in 2 μL DMSO was incubated for 15 min at room temperature with 180 μL of the SCD enzyme in a buffer containing 100 mM Tris-HCl (pH 7.5), ATP (5 mM), Coenzyme-A (0.1 mM), Triton X-100 (0.5 mM) and NADH (2 mM). The reaction was initiated by the addition of 20 μL of [^3H]-stearoyl-CoA (final concentration=2 μM, radioactivity concentration=1 μCi/mL). After 10 min, the reaction mixture (80 μL) was mixed with a calcium chloride/charcoal aqueous suspension (100 μL charcoal (10% w/v) plus 25 μL CaCl2 (2N). After centrifugation to precipitate the radioactive fatty acid species, tritiated water released from 9,10-[^3H]-stearoyl-CoA by the SCD enzyme was quantified on a scintillation counter.

`CS(=O)(=O)c1ccn2cc(-c3ccc(-c4cccc(Cl)c4)cc3)nc2c1` showed an IC50 of 13 nM.

In the case of `CS(=O)(=O)c1ccc2nc(-c3ccc(-c4cccc(F)c4)cc3)[nH]c2c1`, it took 26 nM to reach half-maximal inhibition (IC50). To `CS(=O)(=O)c1ccc2[nH]c(-c3ccc(-c4cccs4)cc3)nc2c1` belongs 231 nM. With `CS(=O)(=O)c1cnc2[nH]c(-c3ccc(-c4ccccc4F)cc3)nc2c1`, the IC50 is 113 nM. The compound `CS(=O)(=O)c1ccc2nc(-c3ccc(-c4ccccc4F)nc3)[nH]c2c1` had an IC50 of 27 nM.
